Where two headings read alike, the source gives them in different places.
Assays:
[1] = tested on: human gastric cancer SNU-16 cell; assay: Cytotoxic action on cancer cells (WST-8, 96 hr); format: cell-based; settings: SNU-16 cells, 96 hr culture
In short: (§1)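 10% FBS/RPMI1640; overnight plating, 37° C/5% CO2; compound from DMSO diluted in medium; WST-8 viable count vs no-compound control; IC50 by two-point linear interpolation around 50% survival.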

[2] = tested on: human non-small cell lung cancer NCI-H1975 cell; assay: Cytotoxic action on cancer cells (WST-8, 96 hr); format: cell-based; settings: 96 hr culture
In short: as §1

[3] = tested on: human liver cancer Hep G2 cell; assay: Cytotoxic action on cancer cells (WST-8, 96 hr); format: cell-based; settings: HepG2, 96 hr culture
In short: as §1

[4] = tested on: human colorectal cancer HCT116 cell; assay: Cytotoxic action on cancer cells (WST-8, 96 hr); format: cell-based; settings: HCT-116, 96 hr culture
In short: as §1

[5] = tested on: human triple negative breast cancer MDA-MB-231 cell; assay: Cytotoxic action on cancer cells (WST-8, 96 hr); format: cell-based; settings: MDA-MB-231 cells, 96 hr culture
In short: as §1

[6] = tested on: human large cell lung cancer NCI-H460 cell; assay: Cytotoxic action on cancer cells (WST-8, 96 hr); format: cell-based; settings: 96 hr culture
In short: as §1

[7] = tested on: human multiple myeloma MM.1S cell; assay: Cytotoxic action on cancer cells (WST-8, 96 hr); format: cell-based; settings: MM1.S, MM.1S cells, 96 hr culture
In short: as §1

[8] = tested on: human uterine sarcoma MES-SA cell; assay: Cytotoxic action on cancer cells (WST-8, 96 hr); format: cell-based; settings: 96 hr culture
In short: as §1

[9] = tested on: human Burkitt lymphoma Raji cell; assay: Cytotoxic action on cancer cells (WST-8, 96 hr); format: cell-based; settings: 96 hr culture
In short: as §1

[10] = tested on: human prostate cancer LNCaP cells; assay: Cytotoxic action on cancer cells (WST-8, 96 hr); format: cell-based; settings: Homo sapiens, LNCaP, 96 h, read-out: LNCaP cytotoxic activity: IC50
In short: as §1

[11] = tested on: human castration-resistant prostate cancer PC-3 cell; assay: Cytotoxic action on cancer cells (WST-8, 96 hr); format: cell-based; settings: PC-3 cells (printed P0-3 in table), 96 hr culture
In short: as §1

[12] = tested on: human bladder cancer 5637 cell; assay: Cytotoxic action on cancer cells (WST-8, 96 hr); format: cell-based; settings: 5637 cells, 96 hr culture
In short: as §1

[13] = tested on: human breast cancer ZR-75-1 cell; assay: Cytotoxic action on cancer cells (WST-8, 96 hr); format: cell-based; settings: ZR-75-1 cells, 96 hr culture
In short: as §1

[14] = tested on: human acute myeloid leukemia MV-4-11 cell; assay: Cytotoxic action on cancer cells (WST-8, 96 hr); format: cell-based; settings: MV4-11, MV-4-11 cells, 96 hr culture
In short: as §1

[15] = tested on: human ovarian cancer A2780 cell; assay: Cytotoxic action on cancer cells (WST-8, 96 hr); format: cell-based; settings: 96 hr culture
In short: as §1

[16] = tested on: human glioma U-87 MG cell; assay: Cytotoxic action on cancer cells (WST-8, 96 hr); format: cell-based; settings: U-87 MG cells, 96 hr culture
In short: as §1

[17] = tested on: human diffuse large B-cell lymphoma SU-DHL-6 cell; assay: Cytotoxic action on cancer cells (WST-8, 96 hr); format: cell-based; settings: SU-DHL-6 cells, 96 hr culture
In short: as §1

[18] = tested on: human chronic myeloid leukemia K562 cell; assay: Cytotoxic action on cancer cells (WST-8, 96 hr); format: cell-based; settings: 96 hr culture
In short: as §1

[19] = tested on: human T-cell leukemia Jurkat cells; assay: Cytotoxic action on cancer cells (WST-8, 96 hr); format: cell-based; settings: 96 hr culture
In short: as §1

[20] = tested on: human pancreatic cancer AsPC-1 cell; assay: Cytotoxic action on cancer cells (WST-8, 96 hr); format: cell-based; settings: ASPC1, AsPC-1 cells, 96 hr culture
In short: as §1

[21] = tested on: human small cell lung cancer NCI-H82 cell; assay: Cytotoxic action on cancer cells (WST-8, 96 hr); format: cell-based; settings: 96 hr culture
In short: as §1

[22] = biological target: BRD4 bromodomain 1 (Homo sapiens (Human), UniProt O60885); assay: Inhibitory action on binding of BRD4 protein and ligand, Test Method 1 (TR-FRET, BRD4 bromodomain 1 TR-FRET Assay Kit); settings: Test Method 1, BRD4 bromodomain 1 and ligand
Experimental: The inhibitory action of the compound of the present invention on the binding of BRD4 protein and a ligand thereof was evaluated by the time-resolved fluorescence resonance energy transfer (TR-FRET) method using BRD4 bromodomain 1 TR-FRET Assay Kit (Cayman). In this experiment, (+)-JQ1 known to have an inhibitory activity on the binding of BRD4 protein and a ligand therefor was used as a positive control drug. A test compound dissolved in DMSO was diluted with TR-FRET Assay Buffer, added to a 384 well black plate, BRD4 bromodomain 1 Europium Chelete was further added and the cells were incubated at room temperature for 15 min. Thereafter, BRD4 bromodomain 1 Ligand/APC Acceptor Mixture was added and the cells were incubated at room temperature for 1 hr. The binding amount of the BRD4 protein and ligand was measured as fluorescence intensity (excitation: 340 nm/emission: 620 nm and excitation: 340 nm/emission: 670 nm).
It was calculated from the straight line connecting the degradation rate at two points enclosing the 50% fluorescence intensity and the compound concentration.

[23] = biological target: BRD4 protein (Homo sapiens (Human), UniProt O60885); assay: BRD4 protein degradation inducing action in cancer cells (immunofluorescence, Operetta); format: cell-based; settings: LNCaP cells, 6 hr treatment, fluorescence intensity
In short: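 DC50 = compound concentration reducing BRD4 immunofluorescence to 50% of untreated cells, interpolated between the two flanking concentrations. Treatment: LNCaP cells, 6 hr, 10% FBS/RPMI1640, 37° C. Cells were then fixed, permeabilized, stained with anti-BRD4 and Alexa Fluor 488 or 546 secondaries, and imaged.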

[24] = tested on: human acute myeloid leukemia MV-4-11 cell transplanted mouse; assay: Antitumor effect in human acute myeloid leukemia MV-4-11 cell transplanted mouse; format: in vivo; settings: MV4-11, iv, 360 h
Experimental: The in vivo antitumor effect of the compound of the present invention was studied using human acute myeloid leukemia MV-4-11 cell transplanted mouse. MV-4-11 cells were subcutaneously transplanted into the inguinal region of male, 6-week-old BALB/c nude mouse (5×10^6 cells/mouse). The compound of the present invention was administered into the tail vein on days 1, 5, 9, 13 from the time point when the assumed tumor volume determined from 1/2ab^2 (a is major axis and b is minor axis of tumor) reached about 100 mm^3 (day 1). The control group was administered with a solvent, 10% hydroxypropyl-β-cyclodextrin solution. On day 15, the tumor was isolated, the weight was measured, and the tumor growth inhibitory rate IR (%) was calculated by the following formula. tumor growth inhibitory rate IR (%)=(1−tumor weight of administration group/tumor weight of nonadministration control group)×100

[25] = read-out: tumor growth inhibitory rate

COC(=O)C[C@@H]1N=C(c2ccc(-c3ccc(OCCOCC(=O)N[C@H](C(=O)N4C[C@H](O)C[C@H]4C(=O)N[C@@H](C)c4ccc(-c5scnc5C)cc4)C(C)(C)C)c(C#N)c3)cc2)c2c(sc(C)c2C)-n2c(C)nnc21 [Example 8, methyl [(6S)-4-(3′-cyano-4′-{2-[2-({(2S)-1-[(2S,4R)-4-hydroxy-2-({(1S)-1-[4-(4-methyl-1,3-thiazol-5-yl)phenyl]ethyl}carbamoyl)pyrrolidin-1-yl]-3,3-dimethyl-1-oxobutan-2-yl}amino)-2-oxoethoxy]ethoxy}[1,1′-biphenyl]-4-yl)-2,3,9-trimethyl-6H-thieno[3,2-f][1,2,4]triazolo[4,3-a][1,4]diazepin-6-yl]acetate]
IC50 [1]: 17 nM | IC50 [2]: 20 nM | IC50 [3]: 48 nM | IC50 [4]: 37 nM | IC50 [5]: 14 nM | IC50 [6]: 75 nM | IC50 [7]: 0.24 nM | IC50 [8]: 21 nM | IC50 [9]: 5.7 nM | IC50 [10]: 0.68 nM | IC50 [11]: 2.5 nM | IC50 [12]: 2.1 nM | IC50 [13]: 4.2 nM | IC50 [14]: 0.15 nM | IC50 [15]: 0.36 nM | IC50 [16]: 25 nM | IC50 [17]: 2.1 nM | IC50 [18]: 5.2 nM | IC50 [19]: 4.3 nM | IC50 [20]: 81 nM | IC50 [21]: 35 nM | IC50 [22]: 82 nM | DC50 [23]: 0.41 nM

COC(=O)C[C@@H]1N=C(c2ccc(-c3ccc(C(=O)N[C@H](C(=O)N4C[C@H](O)C[C@H]4C(=O)N[C@@H](C)c4ccc(-c5scnc5C)cc4)C(C)(C)C)cc3F)cc2)c2c(sc(C)c2C)-n2c(C)nnc21 [Example 62, methyl {(6S)-4-[2′-fluoro-4′-({(2S)-1-[(2S,4R)-4-hydroxy-2-({(1S)-1-[4-(4-methyl-1,3-thiazol-5-yl)phenyl]ethyl}carbamoyl)pyrrolidin-1-yl]-3,3-dimethyl-1-oxobutan-2-yl}carbamoyl) [1,1′-biphenyl]-4-yl]-2,3,9-trimethyl-6H-thieno[3,2-f][1,2,4]triazolo[4,3-a][1,4]diazepin-6-yl}acetate]
IC50 [10]: 0.26 nM | inhibition in vivo at 0.3 mg/kg [24, 25]: 95.6% | inhibition in vivo at 3 mg/kg [24, 25]: 97.4% | DC50 [23]: 0.24 nM

COC(=O)C[C@@H]1N=C(c2ccc(-c3ccc4oc(C(=O)N[C@H](C(=O)N5C[C@H](O)C[C@H]5C(=O)N[C@@H](C)c5ccc(-c6scnc6C)cc5)C(C)(C)C)nc4c3)cc2)c2c(sc(C)c2C)-n2c(C)nnc21 [Example 101, methyl [(6S)-4-{4-[2-({(2S)-1-[(2S,4R)-4-hydroxy-2-({(1S)-1-[4-(4-methyl-1,3-thiazol-5-yl)phenyl]ethyl}carbamoyl)pyrrolidin-1-yl]-3,3-dimethyl-1-oxobutan-2-yl}carbamoyl)-1,3-benzoxazol-5-yl]phenyl}-2,3,9-trimethyl-6H-thieno[3,2-f][1,2,4]triazolo[4,3-a][1,4]diazepin-6-yl]acetate]
IC50 [10]: 0.059 nM | inhibition in vivo at 3 mg/kg [24, 25]: 98.2% | DC50 [23]: 0.052 nM

COC(=O)C[C@@H]1N=C(c2ccc(-c3ccc(OCC(=O)N[C@H](C(=O)N4C[C@H](O)C[C@H]4C(=O)NCc4ccc(-c5scnc5C)cc4)C(C)(C)C)cc3)cc2)c2c(sc(C)c2C)-n2c(C)nnc21 [Example 61, methyl [(6S)-4-{4′-[2-({(25)-1-[(2S,4R)-4-hydroxy-2-({[4-(4-methyl-1,3-thiazol-5-yl)phenyl]methyl}carbamoyl)pyrrolidin-1-yl]-3,3-dimethyl-1-oxobutan-2-yl}amino)-2-oxoethoxy][1,1′-biphenyl]-4-yl}-2,3,9-trimethyl-6H-thieno[3,2-f][1,2,4]triazolo[4,3-a][1,4]diazepin-6-yl]acetate]
IC50 [10]: 0.17 nM | inhibition in vivo at 3 mg/kg [24, 25]: 97.2% | DC50 [23]: 0.81 nM

COC(=O)C[C@@H]1N=C(c2ccc(N3CC[C@@H](C(=O)NCCOc4ccc5oc(C(=O)N[C@H](C(=O)N6C[C@H](O)C[C@H]6C(=O)N[C@@H](C)c6ccc(-c7scnc7C)cc6)C(C)(C)C)cc5c4)C3)cc2)c2c(sc(C)c2C)-n2c(C)nnc21 [Example 67, methyl [(6S)-4-(4-{(3R)-3-[(2-{[2-({(2S)-1-[(2S,4R)-4-hydroxy-2-({(1S)-1-[4-(4-methyl-1,3-thiazol-5-yl)phenyl]ethyl}carbamoyl)pyrrolidin-1-yl]-3,3-dimethyl-1-oxobutan-2-yl}carbamoyl]-1-benzofuran-5-yl]oxy}ethyl)carbamoyl]pyrrolidin-1-yl}phenyl)-2,3,9-trimethyl-6H-thieno[3,2-f][1,2,4]triazolo[4,3-a][1,4]diazepin-6-yl]acetate]
IC50 [10]: 0.47 nM | inhibition in vivo at 3 mg/kg ([24]; dose 3 mg/kg/day, tail vein on days 1, 5, 9, 13, tumor weight on day 15, read-out: tumor growth inhibitory rate): 97.7% | DC50 [23]: 0.55 nM

COC(=O)C[C@@H]1N=C(c2ccc(N3CC[C@H](C(=O)Nc4ccc5oc(C(=O)N[C@H](C(=O)N6C[C@H](O)C[C@H]6C(=O)N[C@@H](C)c6ccc(-c7scnc7C)cc6)C(C)(C)C)cc5c4)C3)cc2)c2c(sc(C)c2C)-n2c(C)nnc21 [Example 138, methyl [(6S)-4-{4-[(3S)-3-{[2-({(2S)-1-[(2S,4R)-4-hydroxy-2-({(1S)-1-[4-(4-methyl-1,3-thiazol-5-yl)phenyl]ethyl}carbamoyl)pyrrolidin-1-yl]-3,3-dimethyl-1-oxobutan-2-yl}carbamoyl)-1-benzofuran-5-yl]carbamoyl}pyrrolidin-1-yl]phenyl}-2,3,9-trimethyl-6H-thieno[3,2-f][1,2,4]triazolo[4,3-a][1,4]diazepin-6-yl]acetate]
IC50 [10]: 0.24 nM | inhibition in vivo at 1 mg/kg [24, 25]: 97.8% | inhibition in vivo at 3 mg/kg [24, 25]: 98.6% | DC50 [23]: 0.62 nM

— patent US11542273B2, “Amide compound having bet proteolysis-inducing action and medicinal application thereof” (MITSUBISHI TANABE PHARMA CORPORATION, priority 2018, dated 2023)
